Values quoted from earlier work as cited in patent US5969096A (priority 1998, dated 1999).

Target: neuronal voltage-sensitive Ca2+ channels

In the case of ω-conotoxin GVIA, the “affinity (Kd) for high-affinity targets” value is listed as “sub-picomolar” and the “time for 50% of the peptide to dissociate” value is listed as “more than 7 hours”.
